System: 947758-054-R-J2-PDC spheroid growth, percent test/control
Experiment: Anticancer human tumor 947758-054-R-J2-PDC patient-derived colon adenocarcinoma cell line growth inhibition [CLK]
Details: spheroids with HUVEC and MSC; for IC50: curve of first compound; for viability, T/C: stronger effect = lower value
Excerpt: A high-throughput screen of multi-cell type tumor spheroids was designed to identify active combinations of […] and targeted small molecules. Complex spheroids include a stromal component modeled by human endothelial cells (HUVEC) and fibroblasts modeled by human mesenchymal stem cells (MSCs). The concentration ranges selected for each drug and investigational agent were based upon clinically achievable concentrations if the clinical Cmax of the agent was known.
Compounds. The drugs and investigational agents: cirtuvivint (SM08502; NSC835563), CC-671 (NSC850746), vemurafenib (NSC761431), tapotoclax (NSC804041), sotorasib (NSC818433), adagrasib (NSC831453), MRTX-1133 (NSC836407), BAY2416964 (NSC825713), copanlisib (NSC816437), inavolisib (NSC800729), abemaciclib (NSC768073), osimertinib (NSC779217), entinostat (NSC756642), eltanexor (KPT-8602, NSC794443), venetoclax (NSC766270), ceralasertib (NSC777638), bortezomib (NSC756655), olaparib (NSC753686), talazoparib (NSC767125), alisertib (NSC759677), peposertib (NSC802822), gemcitabine (NSC613327), 5-fluorouracil (NSC19893), SN-38 (NSC673596), oxaliplatin (NSC266046), paclitaxel (NSC125973), and doxorubicin (NSC123127), were obtained from the National Cancer Institute (NCI) Developmental Therapeutics Program Chemical Repository. The FDA-approved anticancer drug set is available from the Developmental Therapeutics Program at https://dtp.cancer.gov/organization/dscb/obtaining/available plates.htm. […] The stock solutions were prepared in dimethyl sulfoxide (DMSO, Sigma-Aldrich, St. Louis, MO, cat. D2650), except for the platinum complexes which were prepared in saline (Quality Biological, Gaithersburg, MD, cat. 114-055-101), at 800-fold the tested concentration and stored at -70 degrees C prior to their use. All drugs and investigational agents were tested over a range starting from a high concentration at or near the clinical Cmax and decreasing in half-log increments. If the clinical Cmax for an agent had not been determined, the highest concentration tested was 10 microM.
Cell Culture. All cells were maintained in an incubator at 37 degrees C and 5% CO2 with 95% humidity. The PDC lines were cultured according to standard operating procedures established by the NCI PDMR. Briefly, all PDCs were thawed and cultured in Matrigel-coated flasks prepared with a working solution of 1X Ham's F-12 nutrient mix, without supplementation (Invitrogen, Waltham, MA, cat. 11765054), 100 U/mL penicillin-streptomycin (Invitrogen, cat. 15140122), and 2.5% Matrigel (Corning Inc., Corning, NY, cat. 354248) for the first three passages. The 947758-054-R-J2-PDC line was cultured in 6B/Colon 1A media, which includes advanced DMEM/F-12 (Thermo Fisher Scientific, cat. 12634028), 10 mM HEPES (Thermo Fisher Scientific, cat. 15630080), 1X GlutaMAX supplement (Thermo Fisher Scientific, cat. 35050061), 0.1 mg/mL primocin (InvivoGen, cat. ant-pm-2), 10% defined fetal bovine serum, heat inactivated (HyClone Laboratories Inc., cat. SH30070.03HI), 1.25 mM N-Acetyl-L-cysteine (Sigma-Aldrich, cat. A9165), 10 mM nicotinamide (Sigma-Aldrich, cat. N0636), 1X B-27 supplement (Thermo Fisher Scientific, cat. 17504044), 1X N-2 supplement (Thermo Fisher Scientific, cat. 17502048), and 10 microM Y-27632 dihydrochloride (Tocris Bioscience, cat. 1254). The 876862-298-R-J1-PDC was cultured in 6E media, which includes all 6B/Colon 1A media components plus 50% L-WRN conditioned media (ATCC, cat. CRL-3276), 50 ng/mL recombinant human EGF recombinant protein (hEGF; Thermo Fisher Scientific, cat. PHG0311), 10 ng/mL recombinant human fibroblast growth factor 10 (hGFG-10; PeproTech, cat. 100-26), 1 ng/mL recombinant human fibroblast growth factor 2 (hFGF-2; PeproTech, cat. 100-18B), and 1 µM prostaglandin E2 (PGE2; Tocris, cat. 2296). The 227483-062-R1-J1-PDC line was cultured in Panc media, containing all 6E components except hFGF-2, with the addition of 500 nM SB-431542 (Selleckchem, cat. S1067) and 10 nM gastrin (Tocris, cat. 3006). […]

[1] = second compound 0.0316 µM, first compound 0.0316 µM
[2] = second compound 0.0316 µM, first compound 0.1 µM
[3] = second compound 0.0316 µM, first compound 0.316 µM
[4] = second compound 0.0316 µM, first compound 1 µM
[5] = second compound 0.0316 µM, first compound 3.16 µM
[6] = second compound 0.0316 µM, first compound 10 µM
[7] = second compound 0.1 µM, first compound 0.0316 µM
[8] = second compound 0.1 µM, first compound 0.1 µM
[9] = second compound 0.1 µM, first compound 0.316 µM
[10] = second compound 0.1 µM, first compound 1 µM
[11] = second compound 0.1 µM, first compound 3.16 µM
[12] = second compound 0.1 µM, first compound 10 µM
[13] = second compound 0.316 µM, first compound 0.0316 µM
[14] = second compound 0.316 µM, first compound 0.1 µM
[15] = second compound 0.316 µM, first compound 0.316 µM
[16] = second compound 0.316 µM, first compound 1 µM
[17] = second compound 0.316 µM, first compound 3.16 µM
[18] = second compound 0.316 µM, first compound 10 µM
[19] = second compound 1 µM, first compound 0.0316 µM
[20] = second compound 1 µM, first compound 0.1 µM
[21] = second compound 1 µM, first compound 0.316 µM
[22] = second compound 1 µM, first compound 1 µM
[23] = second compound 1 µM, first compound 3.16 µM
[24] = second compound 1 µM, first compound 10 µM
[25] = second compound 3.16 µM, first compound 0.0316 µM
[26] = second compound 3.16 µM, first compound 0.1 µM
[27] = second compound 3.16 µM, first compound 0.316 µM
[28] = second compound 3.16 µM, first compound 1 µM
[29] = second compound 3.16 µM, first compound 3.16 µM
[30] = second compound 3.16 µM, first compound 10 µM
[31] = second compound 10 µM, first compound 0.0316 µM
[32] = second compound 10 µM, first compound 0.1 µM
[33] = second compound 10 µM, first compound 0.316 µM
[34] = second compound 10 µM, first compound 1 µM
[35] = second compound 10 µM, first compound 3.16 µM
[36] = second compound 10 µM, first compound 10 µM
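Further: spheroids exposed to compounds for one week before readout.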
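Wherever viability, T/C is given: 100% = DMSO vehicle control wells.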

C=C(F)C(=O)N1CCN(c2nc(OCC3CCCN3C)nc3c2CCN(c2cccc4cccc(Cl)c24)C3)CC1CC#N (centres undefined) + CN1CCN(c2cc(C(=O)Nc3cc4cc(-c5cnn(C)c5)ccc4cn3)ccn2)CC1
IC50 (second compound 0.0316 µM): 6610 nM
IC50 (second compound 0.1 µM): 7050 nM
IC50 (second compound 0.316 µM): < 31.6 nM
IC50 (second compound 1 µM): < 31.6 nM
IC50 (second compound 3.16 µM): < 31.6 nM
IC50 (second compound 10 µM): < 31.6 nM
viability, T/C [1]: 122%
viability, T/C [2]: 116%
viability, T/C [3]: 109%
viability, T/C [4]: 107%
viability, T/C [5]: 146%
viability, T/C [6]: 10.6%
viability, T/C [7]: 149%
viability, T/C [8]: 201%
viability, T/C [9]: 181%
viability, T/C [10]: 220%
viability, T/C [11]: 154%
viability, T/C [12]: 4.69%
viability, T/C [13]: 4.5%
viability, T/C [14]: 5.53%
viability, T/C [15]: 5.34%
viability, T/C [16]: 6.82%
viability, T/C [17]: 8.16%
viability, T/C [18]: 1.5%
viability, T/C [19]: 0.18%
viability, T/C [20]: 1.06%
viability, T/C [21]: 0.17%
viability, T/C [22]: 2.25%
viability, T/C [23]: 0.12%
viability, T/C [24]: 0.96%
viability, T/C [25]: 1.29%
viability, T/C [26]: 0.25%
viability, T/C [27]: 0.21%
viability, T/C [28]: 0.24%
viability, T/C [29]: 0.14%
viability, T/C [30]: 0.12%
viability, T/C [31]: 1.57%
viability, T/C [32]: 1.69%
viability, T/C [33]: 0.29%
viability, T/C [34]: 0.31%
viability, T/C [35]: 1.29%
viability, T/C [36]: 1.41%

C=CC(=O)N1CCN(c2nc(=O)n(-c3c(C)ccnc3C(C)C)c3nc(-c4c(O)cccc4F)c(F)cc23)C(C)C1 (centres undefined) + CN1CCN(c2cc(C(=O)Nc3cc4cc(-c5cnn(C)c5)ccc4cn3)ccn2)CC1
IC50 (second compound 0.0316 µM): > 10000 nM
IC50 (second compound 0.1 µM): > 10000 nM
IC50 (second compound 0.316 µM): < 31.6 nM
IC50 (second compound 1 µM): < 31.6 nM
IC50 (second compound 3.16 µM): < 31.6 nM
IC50 (second compound 10 µM): < 31.6 nM
viability, T/C [1]: 118%
viability, T/C [2]: 143%
viability, T/C [3]: 122%
viability, T/C [4]: 98.4%
viability, T/C [5]: 113%
viability, T/C [6]: 99.8%
viability, T/C [7]: 172%
viability, T/C [8]: 199%
viability, T/C [9]: 161%
viability, T/C [10]: 234%
viability, T/C [11]: 167%
viability, T/C [12]: 77.3%
viability, T/C [13]: 4.67%
viability, T/C [14]: 7.3%
viability, T/C [15]: 6.68%
viability, T/C [16]: 5.29%
viability, T/C [17]: 3.14%
viability, T/C [18]: 1.35%
viability, T/C [19]: 0.18%
viability, T/C [20]: 3.35%
viability, T/C [21]: 0.19%
viability, T/C [22]: 0.19%
viability, T/C [23]: 0.18%
viability, T/C [24]: 0.21%
viability, T/C [25]: 2.2%
viability, T/C [26]: 0.99%
viability, T/C [27]: 0.31%
viability, T/C [28]: 0.31%
viability, T/C [29]: 0.72%
viability, T/C [30]: 0.51%
viability, T/C [31]: 0.46%
viability, T/C [32]: 0.29%
viability, T/C [33]: 1.59%
viability, T/C [34]: 0.39%
viability, T/C [35]: 0.98%
viability, T/C [36]: 0.57%
